Data taken from PubChem BioAssay (NCI).
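48-hour exposure; five concentrations; linearly interpolated endpoints. TGI: total growth inhibition.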

How the values were obtained:
Assay in all cases: NCI-60 cell line screen, 48 h
[1] = system: SK-MEL-5 melanoma
[2] = system: LOX IMVI melanoma
[3] = system: 786-0 renal
[4] = system: NCI-H522 lung
[5] = system: OVCAR-3 ovarian
[6] = system: PC-3 prostate
[7] = system: SN12C renal
[8] = system: MOLT-4 leukemia
[9] = system: SK-MEL-28 melanoma
[10] = system: MDA-MB-231 breast
[11] = system: NCI-H23 lung
[12] = system: BT-549 breast
[13] = system: SF-539 CNS
[14] = system: MDA-MB-435
[15] = system: OVCAR-4 ovarian
[16] = system: HCT-116 colon
[17] = system: SF-268 CNS
[18] = system: DU-145 prostate
[19] = system: TK-10 renal
[20] = system: HCT-15 colon
[21] = system: HOP-92 NSCLC
[22] = system: SR leukemia
[23] = system: U251 CNS
[24] = system: RPMI-8226 leukemia
[25] = system: HT29 colon
[26] = system: HL-60(TB) leukemia
[27] = system: UO-31 renal
[28] = system: OVCAR-5 ovarian
[29] = system: KM12 colon
[30] = system: SK-MEL-2 melanoma
[31] = system: CCRF-CEM leukemia
[32] = system: NCI/ADR-RES ovarian
[33] = system: K-562 leukemia
[34] = system: SF-295 CNS
[35] = system: A498 renal
[36] = system: HOP-62 NSCLC
[37] = system: NCI-H226 lung
[38] = system: A549 NSCLC
[39] = system: SNB-75 CNS
[40] = system: MCF7 breast
[41] = system: MDA-N
[42] = system: IGROV1 ovarian
[43] = system: UACC-257 melanoma
[44] = system: COLO 205 colon
[45] = system: EKVX NSCLC
[46] = system: HS 578T breast
[47] = system: OVCAR-8 ovarian
[48] = system: ACHN renal
[49] = system: MALME-3M melanoma
[50] = system: NCI-H460 lung
[51] = system: SW-620 colon
[52] = system: UACC-62 melanoma
[53] = system: CAKI-1 renal
[54] = system: SK-OV-3 ovarian
[55] = system: SNB-19 CNS
[56] = system: RXF 393 renal
[57] = system: M14 melanoma
[58] = system: HCC-2998 colon

`Nc1c(Cl)ncnc1NCC1(CO)CCC1` was tested, and the TGI [1] was > 100 µM, the TGI [2] was > 100 µM and the TGI [3] was > 100 µM. The TGI [4] was > 100 µM, the TGI [5] was > 100 µM and the TGI [6] was > 100 µM. The TGI [7] was > 100 µM, the TGI [8] was > 100 µM and the TGI [9] was > 100 µM. The TGI [10] was > 100 µM, the TGI [11] was > 100 µM and the TGI [12] was > 100 µM. For the same compound, the TGI [13] was > 100 µM, the TGI [14] was > 100 µM and the TGI [15] was > 100 µM. The TGI [16] was > 100 µM, the TGI [17] was > 100 µM and the TGI [18] was > 100 µM. The TGI [19] was > 100 µM, the TGI [20] was > 100 µM and the TGI [21] was > 100 µM. The TGI [22] was > 100 µM, the TGI [23] was > 100 µM and the TGI [24] was > 100 µM. For the same compound, the TGI [25] was > 100 µM, the TGI [26] was > 100 µM and the TGI [27] was > 100 µM. For the same compound, the TGI [28] was > 100 µM, the TGI [29] was > 100 µM and the TGI [30] was > 100 µM. The TGI [31] was > 100 µM, the TGI [32] was > 100 µM and the TGI [33] was > 100 µM. For the same compound, the TGI [34] was > 100 µM, the TGI [35] was > 100 µM and the TGI [36] was > 100 µM. For the same compound, the TGI [37] was > 100 µM, the TGI [38] was > 100 µM and the TGI [39] was > 100 µM. For the same compound, the TGI [40] was > 100 µM, the TGI [41] was > 100 µM and the TGI [42] was > 100 µM. For the same compound, the TGI [43] was > 100 µM, the TGI [44] was > 100 µM and the TGI [45] was > 100 µM. For the same compound, the TGI [46] was > 100 µM, the TGI [47] was > 100 µM and the TGI [48] was > 100 µM. For the same compound, the TGI [49] was > 100 µM, the TGI [50] was > 100 µM and the TGI [51] was > 100 µM.

With `CC(=O)NC1=NC(=O)/C(=C/c2ccc(Cl)cc2Cl)N1C` the TGI [1] was > 100 µM, the TGI [2] was > 100 µM and the TGI [3] was > 100 µM. For the same compound, the TGI [52] was 88.2 µM, the TGI [4] was > 100 µM and the TGI [53] was > 100 µM. For the same compound, the TGI [5] was > 100 µM, the TGI [6] was > 100 µM and the TGI [8] was 81.4 µM. For the same compound, the TGI [10] was > 100 µM, the TGI [11] was > 100 µM and the TGI [12] was > 100 µM. The TGI [13] was > 100 µM, the TGI [14] was > 100 µM and the TGI [15] was > 100 µM. The TGI [16] was > 100 µM, the TGI [54] was > 100 µM and the TGI [55] was > 100 µM. The TGI [17] was > 100 µM, the TGI [18] was > 100 µM and the TGI [19] was > 100 µM. For the same compound, the TGI [20] was > 100 µM, the TGI [21] was > 100 µM and the TGI [56] was > 100 µM. The TGI [23] was > 100 µM, the TGI [25] was > 100 µM and the TGI [26] was 7.37 µM. For the same compound, the TGI [57] was > 100 µM, the TGI [27] was > 100 µM and the TGI [28] was > 100 µM. For the same compound, the TGI [29] was > 100 µM, the TGI [30] was > 100 µM and the TGI [31] was 34.8 µM. For the same compound, the TGI [32] was > 100 µM, the TGI [34] was > 100 µM and the TGI [36] was > 100 µM. The TGI [37] was 82.5 µM, the TGI [38] was > 100 µM and the TGI [39] was > 100 µM. The TGI [40] was > 100 µM, the TGI [41] was > 100 µM and the TGI [42] was > 100 µM. For the same compound, the TGI [43] was > 100 µM, the TGI [44] was > 100 µM and the TGI [45] was 50.7 µM. For the same compound, the TGI [46] was > 100 µM, the TGI [47] was > 100 µM and the TGI [58] was > 100 µM. For the same compound, the TGI [48] was > 100 µM, the TGI [50] was > 100 µM and the TGI [51] was > 100 µM.
